According to US20240101584A1, “TARGETED DELIVERY OF 1,2,4,5 TETRAOXANE COMPOUNDS AND THEIR USES” (Westlake University, priority 2021, published 2024):
“Also recorded” adds a separate entry of the source. Where two headings read alike, the source gives them in different places. Blank lines part the entries; values can stand above or below the molecule they belong to.

Experiments:
HEYA8 CSCs = test: CellTiter-Glo viability, HeyA8 cancer stem cells (spheres); format: cell-based; settings: 5 μM of erastin, 50 μM of artesunate; RSL3 single dose
HeyA8 cells = test: CellTiter-Glo viability, adherent HeyA8 ovarian cancer cells; format: cell-based
NIH3T3 cells = test: MTT viability assay, non-cancerous NIH3T3 cells; format: cell-based
Experimental: (§1) The anticancer activities of the exemplary compounds listed in Example 1 were tested against human cervix Hela cells, mammary breast cancer MDA-MB-231 cells, human hepatocellular HepG2 cells, human colorectal HCT116 cells, mammary ductal T47D cells, non-cancerous NIH3T3 cells, dog's kidney MDCK cells, and mouse brain bEnd.3 cells, respectively.

MDA-MB-231 cells = test: MTT viability assay, MDA-MB-231 cells; format: cell-based
Experimental: as §1

HEK293 cells = test: MTT viability assay, HEK293 cells; format: cell-based; settings: mean, n = 3, read-out: IC50 against HEK293 cells
Hela cells = test: MTT viability assay, Hela cells; format: cell-based, human; settings: 48 h incubation, mean, n = 3, read-out: IC50 against Hela cells
Experimental: as §1

MDCK cells = test: MTT viability assay, MDCK cells; format: cell-based, dog; settings: 48 h incubation, mean, n = 3, read-out: IC50 against MDCK cells
Experimental: as §1

bEnd.3 cells = test: MTT viability assay, bEnd.3 cells; format: cell-based, mouse; settings: mean, n = 3, read-out: IC50 against bEnd.3 cells
Experimental: as §1

T47D cells = test: MTT viability assay, T47D cells; format: cell-based
Experimental: as §1

HCT116 cells = test: MTT viability assay, HCT116 cells; format: cell-based, human; settings: MTT, 48 h incubation, mean, n = 3, read-out: IC50 against HCT116 cells
Experimental: as §1

HepG2 cells = test: MTT viability assay, HepG2 cells; format: cell-based, human; settings: MTT, 48 h incubation, mean, n = 3, read-out: IC50 against HepG2 cells
Experimental: as §1

[1] = test system: MDA-MB-231 xenograft tumors; test: Mouse xenograft breast tumors (MDA-MB-231); format: in vivo, Nude mice; settings: mouse, in vivo
Experimental: FIG. 12A is a graph showing the tumor volume of xenograft tumors versus time after s.c. injection of DMSO, PTX, compound 37b, or compound 48. Nude mice were injected s.c. with MDA-MB-231 cells (10^6) and randomly allocated to one of the six treatment groups (n=5): (i) DMSO, (ii) Paclitaxel (PTX), 5 mg/kg, (iii) compound 37b, 5 mg/kg, (iv) compound 37b, 10 mg/kg, (v) compound 48, 5 mg/kg, or (vi) compound 48, 10 mg/kg. When control animals (DMSO) began to appear tumor ulceration (25 days), all animals in the experiment were sacrificed and photographed.
FIG. 12B are photographs of the tumor from sacrificed animals of different treatment groups after 25 days. FIG. 12C is a graph showing the tumor weight of xenograft tumors versus time after s.c. injection of DMSO, PTX, compound 37b, or compound 48. Data are shown as mean±SEM. * P≤0.05 versus DMSO group. FIG. 12D are photographs showing the morphological observation of mice tissue treated with DMSO, paclitaxel, compound 37b, or compound 48 with H&E staining on heart, liver, kidney, lungs, and spleen tissues (200×).

[2] = test system: lipid ROS in MDA-MB-231 cells; test: C11-BODIPY lipid ROS detection in MDA-MB-231 cells; format: cell-based; settings: 48 5 μM, 37b 1 μM, RSL3 0.5 μM; 6 h incubation
Experimental: FIG. 11 is a bar graph showing the detection of lipid ROS with compound 48 (5 μM), compound 37b (1 μM), or RSL3 (0.5 μM) by BODIPY 581/591 C11 after 6 h incubation in MDA-MB-231 cells. **P≤0.01 versus DMSO group. Data are plotted as the mean±SD, n=3 biologically independent samples. All P values were determined using two-tailed Student's t-test.
Since lipid peroxidation is the evidence about ferroptosis, C11-BODIPY probe is used to validate the lipid ROS generated by tetraoxanes. It is a ratiometric membrane-targeted probe which changes the emission from 590 nm to 510 nm upon the detection of lipid ROS. Here, MDA-MB-231 cells were treated with 48, 37b and RSL3, respectively. The lipid ROS levels were quantified by flow cytometry. Untreated group gave weak signal in FL1 channel (FIG. 11).

[3] = Mus musculus, NIH3T3, MTT, 48 h incubation, mean, n = 3, read-out: IC50 against NIH3T3 cells
[4] = Homo sapiens, MDA-MB-231, 48 h, MTT, 48 h incubation, mean, n = 3, read-out: IC50 against MDA-MB-231 cells
[5] = MTT, 48 h incubation, mean, n = 3, read-out: IC50 against MDA-MB-231 cells
[6] = MTT, 48 h incubation, mean, n = 3, read-out: IC50 against T47D cells
[7] = Homo sapiens, HEK293, 48 h incubation
[8] = MTT, 48 h incubation, mean, n = 3, read-out: IC50 against NIH3T3 cells
[9] = Mus musculus, BEND3, 48 h incubation
[10] = Homo sapiens, T47D, MTT, 48 h incubation, mean, n = 3, read-out: IC50 against T47D cells

IC50 (MDA-MB-231 cells; [4]): 20.3 µM
SMILES: C[C@H]1[C@H](OC(=O)CCC(=O)O)O[C@@H]2O[C@@]3(C)CC[C@H]4[C@H](C)CC[C@@H]1[C@@]24OO3 [Artesunate, reference compound]
cytotoxic effect on HEYA8 CSCs at single dose (HEYA8 CSCs): did not show any cytotoxic effect; also recorded: almost insensitive | cell death of adherent HEYA8 cells (HeyA8 cells; high concentration): ~50% | IC50 (NIH3T3 cells; [3]): 17.4 µM

SMILES: O=C(CC1CCC2(CC1)OOC1(OO2)C2CC3CC(C2)CC1C3)NCCC[P+](c1ccccc1)(c1ccccc1)c1ccccc1 (centres unmarked) [Compound 6b, (3-(2-((1r,3r,5r,7r)-dispiro[adamantane-2,3′-[1,2,4,5]tetraoxane-6′,1″-cyclohexan]-4″-yl)acetamido)propyl)triphenylphosphonium bromide]
IC50 (HEK293 cells; 48 h incubation): 1.6 µM | IC50 (Hela cells): 2.2 µM | IC50 (MDCK cells): 18.1 µM | IC50 (MDA-MB-231 cells; [5]): 2.6 µM | IC50 (bEnd.3 cells; 48 h incubation): 12.3 µM | IC50 (T47D cells; [6]): 4.4 µM

IC50 (MDA-MB-231 cells; [4]): 14.4 µM
SMILES: CN(C)CCCNC(=O)OC1CCC2(CC1)OOC1(OO2)C2CC3CC(C2)CC1C3 (centres unmarked) [Compound 30a, (1r,3r,5r,7r)-dispiro[adamantane-2,3′-[1,2,4,5]tetraoxane-6′,1″-cyclohexan]-4″-yl(3-(dimethylamino)propyl)carbamate]
IC50 (HEK293 cells; [7]): 2.5 µM | IC50 (MDCK cells; Canis lupus familiaris, MDCK): 42.8 µM

SMILES: O=C(NCCC[P+](c1ccccc1)(c1ccccc1)c1ccccc1)OC1CCC2(CC1)OOC1(OO2)C2CC3CC(C2)CC1C3 (centres unmarked) [Compound 30b, (3-(((((1r,3r,5r,7r)-dispiro[adamantane-2,3′-[1,2,4,5]tetraoxane-6′,1″-cyclohexan]-4″-yl)oxy)carbonyl)amino)propyl)triphenylphosphonium bromide]
IC50 (HEK293 cells; 48 h incubation): 1 µM | IC50 (Hela cells): 2.4 µM | IC50 (MDCK cells): 5.8 µM | IC50 (HCT116 cells): 1.4 µM | IC50 (NIH3T3 cells; [8]): 5.8 µM | IC50 (MDA-MB-231 cells; [5]): 0.53 µM | IC50 (HepG2 cells): 1.2 µM

IC50 (Hela cells; Homo sapiens, HeLa): 15.1 µM | IC50 (HCT116 cells; Homo sapiens, HCT-116): 14.4 µM | IC50 (MDA-MB-231 cells; [4]): 7.4 µM | IC50 (HepG2 cells; Homo sapiens, HepG2): 4.8 µM | IC50 (T47D cells; [10]): 6.1 µM
SMILES: CC(C)(C)C1CCC2(CC1)OOC1(CCC(O)CC1)OO2 (centres unmarked) [Compound 37, 12-(tert-butyl)-7,8,15,16-tetraoxadispiro[5.2.59.26]hexadecan-3-ol]
IC50 (HEK293 cells; [7]): 5.8 µM | IC50 (MDCK cells; Canis lupus familiaris, MDCK): > 50 µM | IC50 (NIH3T3 cells; [3]): 7.1 µM | IC50 (bEnd.3 cells; [9]): > 100 µM

IC50 (Hela cells; Homo sapiens, HeLa): 3.9 µM | IC50 (HCT116 cells; Homo sapiens, HCT-116): 4.6 µM | IC50 (MDA-MB-231 cells; [4]): 2 µM | IC50 (HepG2 cells; Homo sapiens, HepG2): 2 µM | IC50 (T47D cells; [10]): 2.2 µM
SMILES: CN(C)CCCNC(=O)OC1CCC2(CC1)OOC1(CCC(C(C)(C)C)CC1)OO2 (centres unmarked) [Compound 37a, 12-(tert-butyl)-7,8,15,16-tetraoxadispiro[5.2.59.26]hexadecan-3-yl(3-(dimethylamino)propyl)carbamate]
IC50 (HEK293 cells; [7]): 0.8 µM | IC50 (MDCK cells; Canis lupus familiaris, MDCK): 23.7 µM | IC50 (NIH3T3 cells; [3]): 1.7 µM | IC50 (bEnd.3 cells; [9]): 10.9 µM

SMILES: CC(C)(C)C1CCC2(CC1)OOC1(CCC(OC(=O)Oc3ccc([N+](=O)[O-])cc3)CC1)OO2 (centres unmarked) [Compound 37c, 12-(tert-butyl)-7,8,15,16-tetraoxadispiro[5.2.59.26]hexadecan-3-yl(4-nitrophenyl) carbonate]
abnormal behavior or weight loss during treatment period [1]: no abnormal behavior or weight loss

IC50 (Hela cells; Homo sapiens, HeLa): 11.5 µM | IC50 (MDA-MB-231 cells; [4]): 11 µM | IC50 (MDA-MB-231 cells; Homo sapiens, MDA-MB-231, Table 12b, read-out: IC50 MDA-MB-231): 11 ± 0.9 µM | IC50 (T47D cells; [10]): 3.1 µM | IC50 (T47D cells; Homo sapiens, T47D, Table 12b, read-out: IC50 T47D): 3.1 ± 0.7 µM
SMILES: CC1=CC(=O)C(C(C)(C)CC(=O)N2CCN(C(=O)OC3CCC4(CC3)OOC3(CCC(C(C)(C)C)CC3)OO4)CC2)=C(C)C1=O (centres unmarked) [Compound 37g, 12-(tert-butyl)-7,8,15,16-tetraoxadispiro[5.2.59.26]hexadecan-3-yl 4-(3-(2,4-dimethyl-3,6-dioxocyclohexa-1,4-dien-1-yl)-3-methylbutanoyl)piperazine-1-carboxylate]
IC50 (MDCK cells; Canis lupus familiaris, MDCK): 22.3 µM | IC50 (NIH3T3 cells; [3]): 26.6 µM | IC50 (NIH3T3 cells; Mus musculus, NIH3T3, Table 12b, read-out: IC50 NIH3T3): 26.6 ± 2.6 µM | selectivity index (IC50 of NIH3T3 divided by IC50 on MDA-MB-231) (MDA-MB-231 cells; Table 12b, value in bracket): (>2.4) | selectivity index (IC50 of NIH3T3 divided by IC50 on T47D) (T47D cells; Table 12b, value in bracket): (>8.5)

SMILES: CC(C)(C)C1CCC2(CC1)OOC1(CCC(OC(=O)NCCCCO[C@@H]3O[C@H](CO)[C@@H](O)[C@H](O)[C@H]3O)CC1)OO2 (stereo partly drawn) [Compound 37i, 12-(tert-butyl)-7,8,15,16-tetraoxadispiro[5.2.59.26]hexadecan-3-yl(4-(((2R,3R,4S,5S,6R)-3,4,5-trihydroxy-6-(hydroxymethyl)tetrahydro-2H-pyran-2-yl)oxy)butyl)carbamate]
IC50 (Hela cells): 28.5 µM | IC50 (MDCK cells): > 50 µM | IC50 (NIH3T3 cells; [8]): > 100 µM | IC50 (MDA-MB-231 cells; [5]): 24.3 µM | IC50 (T47D cells; [6]): 13.2 µM

IC50 (Hela cells; Homo sapiens, HeLa): 30.6 µM | IC50 (MDA-MB-231 cells; [4]): 23.9 µM | IC50 (T47D cells; [10]): 10.6 µM
SMILES: CC(C)(C)C1CCC2(CC1)OOC1(CCC(OC(=O)NCCOCCOCCNC(=O)OC3CCC4(CC3)OOC3(CCC(C(C)(C)C)CC3)OO4)CC1)OO2 (centres unmarked) [Compound 37j, bis(12-(tert-butyl)-7,8,15,16-tetraoxadispiro[5.2.59.26]hexadecan-3-yl) ((ethane-1,2-diylbis(oxy))bis(ethane-2,1-diyl))dicarbamate]
IC50 (MDCK cells; Canis lupus familiaris, MDCK): > 100 µM | IC50 (NIH3T3 cells; [3]): > 100 µM

SMILES: CCOc1ccccc1-n1c(C(C)N2CCN(C(=O)COc3ccc(Cl)cc3)CC2)nc2ccccc2c1=O (centres unmarked) [Erastin, reference compound]
cytotoxic effect on HEYA8 CSCs at single dose (HEYA8 CSCs): did not show any cytotoxic effect; also recorded: almost insensitive | IC50 (NIH3T3 cells; [3]): 0.29 µM | IC50 (MDA-MB-231 cells; [4]): 1.3 µM

SMILES: COC(=O)c1ccc([C@@H]2c3[nH]c4ccccc4c3C[C@@H](C(=O)OC)N2C(=O)CCl)cc1 [RSL3, reference compound]
lipid ROS (BODIPY 581/591 C11, FL1, flow cytometry) [2]: fluorescence enhancement in FL1 was observed | elimination of adherent HEYA8 cells (HeyA8 cells; 5 μM): eliminate the majority of adherent HEYA8 cells | selectivity between non-cancerous cells and cancer cells (NIH3T3 cells): more cytotoxic to non-cancerous cells than cancer cells | IC50 (NIH3T3 cells; [8]): 0.028 µM | IC50 (NIH3T3 cells; text b507, read-out: IC50 on NIH3T3 cells): 0.0283 ± 0.0086 µM | IC50 (MDA-MB-231 cells; [5]): 0.041 µM
